# Source: patent US6288277A, “Benzylamine and phenylethylamine derivatives, processes for preparing the same and their use as medicaments” (Boehringer Ingelheim Pharma KG, priority 1997, dated 2001)
# Structures can show the parent of a compound that is named as a salt.
# Biological target: LTB4-receptor (Homo sapiens, UniProt Q15722)
# Assay: Ki (LTB4-receptor; tests as described in WO 93/16036, pages 15 to 17)
# Type: binding
# Sequence of LTB4-receptor (Q15722 whole entry): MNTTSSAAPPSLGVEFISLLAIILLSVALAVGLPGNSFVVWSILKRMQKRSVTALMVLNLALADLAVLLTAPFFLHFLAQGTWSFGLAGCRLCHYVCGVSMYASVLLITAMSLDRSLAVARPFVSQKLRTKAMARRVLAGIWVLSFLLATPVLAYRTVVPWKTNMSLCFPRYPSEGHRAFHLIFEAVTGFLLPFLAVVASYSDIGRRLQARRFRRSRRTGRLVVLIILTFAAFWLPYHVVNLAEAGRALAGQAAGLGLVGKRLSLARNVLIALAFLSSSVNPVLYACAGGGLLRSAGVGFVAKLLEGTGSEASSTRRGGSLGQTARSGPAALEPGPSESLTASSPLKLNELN
row,SMILES,Ki
1,CC(C)(c1ccccc1)c1ccc(OCc2cccc(COc3ccc(CN)cc3)c2)cc1,16.2 nM
2,NCc1ccc(OCc2cccc(COc3cccc(C(=O)c4ccccc4)c3)c2)cc1,13.8 nM
3,NCc1ccc(OCc2cccc(COc3ccc(C4(c5ccc(O)cc5)CCC4)cc3)c2)cc1,11.1 nM
4,CC(c1ccc(O)cc1)c1ccc(OCc2cccc(COc3ccc(CN)cc3)c2)cc1 (stereo not drawn),21.5 nM
5,NCc1ccc(OCc2cccc(COc3ccc(S(=O)(=O)c4ccc(O)cc4)cc3)c2)cc1,1.9 nM
6,NCc1ccc(OCc2cccc(COc3ccc(Sc4ccc(O)cc4)cc3)c2)cc1,28.7 nM
7,NCc1ccc(OCc2cccc(COc3ccc([S+]([O-])c4ccc(O)cc4)cc3)c2)cc1 (stereo not drawn),1.6 nM
8,CC(C)(c1ccc(O)cc1)c1ccc(OCc2cccc(COc3ccc(CN)cc3)c2F)cc1,27.9 nM
9,CC(C)(c1ccc(OCc2cccc(COc3ccc(CN)cc3)c2)cc1)c1ccc(O[C@@H]2O[C@H](CO)[C@@H](O)[C@H](O)[C@H]2O)cc1,0.55 nM
10,NCc1ccc(OCc2cccc(COc3ccc(Oc4ccc(O)cc4)cc3)c2)cc1,59.7 nM
11,Cc1cc(C(C)(C)c2ccc(OCc3cccc(COc4ccc(CN)cc4)c3)c(C)c2)ccc1O,32.5 nM
12,CC(C)(c1ccc(O)cc1)c1ccc(C(C)(C)c2ccc(OCc3cccc(COc4ccc(CN)cc4)c3)cc2)cc1,50.8 nM
13,CCOC(=O)CCC(C)(c1ccc(O)cc1)c1ccc(OCc2cccc(COc3ccc(CN)cc3)c2)cc1 (stereo not drawn),14.9 nM
14,CC(CCC(=O)O)(c1ccc(O)cc1)c1ccc(OCc2cccc(COc3ccc(CN)cc3)c2)cc1 (stereo not drawn),0.5 nM
15,COC(=O)c1ccc(C(C)(C)c2ccc(OCc3cccc(COc4ccc(CN)cc4)c3)cc2)cc1,11.4 nM
16,CC(C)N(C(=O)c1ccc(C(C)(C)c2ccc(OCc3cccc(COc4ccc(CN)cc4)c3)cc2)cc1)C(C)C,13.1 nM
17,CCOC(=O)NCc1ccc(OCc2cccc(COc3ccc(C(C)(C)c4ccc(O)cc4)cc3)c2)cc1,263 nM
18,CCOC(=O)C(C)(c1ccc(O)cc1)c1ccc(OCc2cccc(COc3ccc(CN)cc3)c2)cc1 (stereo not drawn),2.85 nM
19,CCOC(=O)NCC(C)(C)c1ccc(OCc2cccc(COc3ccc(CN)cc3)c2)cc1,4.5 nM
20,CC(C)(CN)c1ccc(OCc2cccc(COc3ccc(CN)cc3)c2)cc1,67.3 nM
21,CC(C)(C)Oc1ccc(OCc2cccc(COc3ccc(CN)cc3)c2)cc1,7.5 nM
22,CC(C)(c1ccc(OCc2cccc(COc3ccc(CN)cc3)c2)cc1)c1ccc(C(=O)N2CCCCC2)cc1,0.86 nM
23,CC(C)(c1ccccc1)c1ccc(OCc2cccc(COc3ccc(CN)cc3)c2)c(O)c1,17.6 nM
24,CC(C)(c1ccccc1)c1ccc(O)c(OCc2cccc(COc3ccc(CN)cc3)c2)c1,21.9 nM
25,NCc1ccc(OCc2cccc(COc3ccc(Cc4ccc(O)cc4)cc3)c2)cc1,38.6 nM
26,NCc1ccc(OCc2cccc(COc3ccc(C(c4ccc(O)cc4)(C(F)(F)F)C(F)(F)F)cc3)c2)cc1,21.8 nM
27,CC(C)(c1ccc(O)cc1F)c1ccc(OCc2cccc(COc3ccc(CN)cc3)c2)cc1F,10.6 nM
28,CC(C)(c1ccc(O)cc1)c1ccc(OCc2cccc(COc3ccc(CN)cc3)c2)c(O)c1,2.4 nM
29,CC(C)(c1ccccc1)c1ccc(OCc2cccc(COc3ccc(CCN)cc3)c2)cc1 [2-[4-[[3-[[4-[1-phenyl-1-methylethyl]phenoxy]methyl]phenyl]methoxy]]-ethylamine hydrochloride],30.6 nM
30,CC(C)(c1ccc(O)cc1)c1ccc(OCc2cccc(COc3ccc(CN)cc3)c2)cc1 [4-[[3-[[4-[1-(4-Hydroxyphenyl)-1-methylethyl]phenoxy]methyl]phenyl]methoxy]-benzylamine hydrochloride],15.7 nM
